From publication PMC8161026, “Synthesis and Anticancer Activity Evaluation of 5-[2-Chloro-3-(4-nitrophenyl)-2-propenylidene]-4-thiazolidinones” (Molecules, 2021)

Key:
[1] = tested on: UACC-62; experiment: NCI DTP 60 cell line screen, SRB
[2] = tested on: K-562; experiment: cells; conditions: Homo sapiens, K562, 48 h
[3] = tested on: DU-145; conditions: DU-145 (Prostate Cancer), 48 h, SRB
[4] = tested on: NCI-H23; experiment: cells; conditions: Homo sapiens, NCI-H23, 48 h
[5] = tested on: SK-OV-3; experiment: NCI DTP 60 cell line screen, SRB
[6] = tested on: HCT-116; conditions: HCT-116 (Colon Cancer), 48 h, SRB
[7] = tested on: HS 578T; experiment: NCI DTP 60 cell line screen, SRB; conditions: 48 h
[8] = tested on: OVCAR-4; experiment: NCI DTP 60 cell line screen, SRB
[9] = tested on: SK-MEL-2; experiment: cells; conditions: Homo sapiens, SK-MEL-2, 48 h
[10] = tested on: A498; experiment: NCI DTP 60 cell line screen, SRB
[11] = tested on: Prostate Cancer subpanel; experiment: cells
Protocol: (§1) At the first stage of biological activity study, the antitumor activity screening of the selected compounds 2b, 2c, 2f, 2h, and 2j was performed according to the NCI DTP (USA) standard protocol at the concentrations ranging from 10^−4 to 10^−8 M toward 60 tumor cell lines. The percentage of growth was evaluated spectrophotometrically versus controls not treated with test agents after 48 h exposure and using SRB protein assay to estimate cell viability or growth. Dose–response parameters were calculated for each cell line: GI50—molar concentration of the compound that inhibits 50% net cell growth; TGI—molar concentration of the compound leading to the total inhibition; and LC50—molar concentration of the compound leading to 50% net cell death. Furthermore, mean graph midpoints (MG_MID) were calculated for each of the parameters, giving an average activity parameter over all cell lines for the tested compound. For the MG_MID calculation, insensitive cell lines were included with the highest concentration tested.
(§2) The selectivity index (SI) obtained by dividing the full panel MG-MID (mM) of the tested compound by their individual subpanel MG-MID (mM) was considered as a measure of selectivity of anticancer activity (Table 3).
(§3) Primary anticancer assay was performed on a panel of approximately sixty human tumor cell lines derived from nine neoplastic diseases, in accordance with the protocol of the Drug Evaluation Branch, National Cancer Institute, Bethesda. Tested compounds were added to the culture at a single concentration (10^−5 M) and the cultures were incubated for 48 h. End point determinations were made with a protein binding dye, sulforhodamine B (SRB). […] The percentage growth was evaluated spectrophotometrically versus controls not treated with test agents.
(§4) Dose–response parameters (GI50, TGI, LC50) were calculated for each compound. […] The drug concentration resulting in total growth inhibition (TGI) was calculated from Ti = Tz. The LC50 (concentration of drug resulting in a 50% reduction in the measured protein at the end of the drug treatment as compared to that at the beginning) indicating a net loss of cells following treatment was calculated from [(Ti − Tz)/Tz] × 100 = −50 (2). Values were calculated for each of these parameters if the level of activity was reached; however, if the effect was not reached or was excessive, the value for that parameter was expressed as more or less than the maximum or minimum concentration tested.

[12] = tested on: CNS Cancer subpanel; experiment: cells
Protocol: as §1, §2, §3, §4

[13] = tested on: Melanoma subpanel; experiment: cells
Protocol: as §1, §2, §3, §4

[14] = tested on: Colon Cancer subpanel; experiment: cells
Protocol: as §1, §2, §3, §4

[15] = tested on: Renal Cancer subpanel; experiment: cells
Protocol: as §1, §2, §3, §4

[16] = tested on: Non-Small Cell Lung Cancer subpanel; experiment: cells
Protocol: as §1, §2, §3, §4

[17] = tested on: Ovarian Cancer subpanel; experiment: cells
Protocol: as §1, §2, §3, §4

[18] = tested on: Breast Cancer subpanel; experiment: cells
Protocol: as §1, §2, §3, §4

[19] = tested on: Leukemia subpanel; experiment: cells
Protocol: as §1, §2, §3, §4

[20] = Homo sapiens, read-out: MG_MID, GI50
[21] = Homo sapiens, read-out: MG_MID, LC50
[22] = full panel MG_MID / Prostate Cancer subpanel MG_MID
[23] = full panel MG_MID / CNS Cancer subpanel MG_MID
[24] = full panel MG_MID / Melanoma subpanel MG_MID
[25] = full panel MG_MID / Colon Cancer subpanel MG_MID
[26] = full panel MG_MID / Renal Cancer subpanel MG_MID
[27] = full panel MG_MID / Non-Small Cell Lung Cancer subpanel MG_MID
[28] = full panel MG_MID / Ovarian Cancer subpanel MG_MID
[29] = full panel MG_MID / Breast Cancer subpanel MG_MID
[30] = full panel MG_MID / Leukemia subpanel MG_MID

`O=C(O)C(Cc1ccccc1)N1C(=O)/C(=C/C(Cl)=C/c2ccc([N+](=O)[O-])cc2)SC1=S` (centres unmarked) [Compound 2j, 2-{5-[(Z,2Z)-2-Chloro-3-(4-nitrophenyl)-2-propenylidene]-4-oxo-2-thioxothiazolidin-3-yl}-3-phenylpropanoic acid] showed a GI50 ([1]; Homo sapiens, UACC-62, 48 h) of 2 µM, a CC50 ([1]; Homo sapiens, UACC-62, 48 h, read-out: LC50) of 30.2 µM and a TGI ([1]; UACC-62 (Melanoma), 48 h, SRB) of 4.85 µM. For the same compound, the GI50 [2] was 3.01 µM, the CC50 ([2]; read-out: LC50) was over 100 µM and the TGI [3] was 4.56 µM. For the same compound, the GI50 [4] was 2.13 µM, the CC50 ([4]; read-out: LC50) was over 100 µM and the GI50 ([5]; Homo sapiens, SK-OV-3, 48 h) was 4.13 µM. For the same compound, the CC50 ([5]; Homo sapiens, SK-OV-3, 48 h, read-out: LC50) was over 100 µM, the TGI ([5]; SK-OV-3 (Ovarian Cancer), 48 h, SRB) was over 100 µM and the TGI [6] was 5.47 µM. It also gave a TGI ([7]; HS 578T (Breast Cancer), SRB) of over 100 µM, a GI50 ([7]; Homo sapiens, Hs-578T) of 4.37 µM and a CC50 ([7]; Homo sapiens, Hs-578T, read-out: LC50) of over 100 µM. The GI50 ([8]; Homo sapiens, OVCAR-4, 48 h) was 3.21 µM, the CC50 ([8]; Homo sapiens, OVCAR-4, 48 h, read-out: LC50) was over 100 µM and the TGI ([8]; OVCAR-4 (Ovarian Cancer), 48 h, SRB) was over 100 µM. It also gave a GI50 [9] of 1.87 µM, a CC50 ([9]; read-out: LC50) of over 100 µM and a TGI ([10]; A498 (Renal Cancer), 48 h, SRB) of 3.24 µM. The GI50 ([10]; Homo sapiens, A498, 48 h) was 1.65 µM, the CC50 ([10]; Homo sapiens, A498, 48 h, read-out: LC50) was 6.37 µM and the GI50 [11, 20] was 2.3 µM. The CC50 [11, 21] was 55.9 µM, the “MG_MID, TGI” value ([11]; Prostate Cancer panel mean) was 6.27 µM and the “SI (selectivity index), GI50” value [11, 22] was 1.78. The “SI (selectivity index), LC50” value [11, 22] was 1.32, the “SI (selectivity index), TGI” value [11, 22] was 6.48 and the GI50 [12, 20] was 2.18 µM. The CC50 [12, 21] was 7.21 µM, the “SI (selectivity index), GI50” value [12, 23] was 1.88 and the “SI (selectivity index), LC50” value [12, 23] was 10.25. For the same compound, the “SI (selectivity index), TGI” value [12, 23] was 11.53, the GI50 [13, 20] was 2 µM and the CC50 [13, 21] was 50.6 µM. For the same compound, the “MG_MID, TGI” value ([13]; Melanoma panel mean) was 17.9 µM, the “SI (selectivity index), GI50” value [13, 24] was 2.05 and the “SI (selectivity index), LC50” value [13, 24] was 1.46. The “SI (selectivity index), TGI” value [13, 24] was 2.27, the “MG_MID, TGI” value ([14]; Colon Cancer panel mean) was 18.7 µM and the GI50 [14, 20] was 2.19 µM. For the same compound, the CC50 [14, 21] was 67.4 µM, the “SI (selectivity index), GI50” value [14, 25] was 1.87 and the “SI (selectivity index), LC50” value [14, 25] was 1.10. The “SI (selectivity index), TGI” value [14, 25] was 2.17, the GI50 [15, 20] was 2.03 µM and the CC50 [15, 21] was 42.6 µM. The “MG_MID, TGI” value ([15]; Renal Cancer panel mean) was 27.8 µM, the “SI (selectivity index), GI50” value [15, 26] was 2.01 and the “SI (selectivity index), LC50” value [15, 26] was 1.73. For the same compound, the “SI (selectivity index), TGI” value [15, 26] was 1.46, the GI50 [16, 20] was 13.1 µM and the CC50 [16, 21] was 92.9 µM. For the same compound, the “MG_MID, TGI” value ([16]; Non-Small Cell Lung Cancer panel mean) was 36.9 µM, the “SI (selectivity index), GI50” value [16, 27] was 0.31 and the “SI (selectivity index), LC50” value [16, 27] was 0.80. The “SI (selectivity index), TGI” value [16, 27] was 1.10, the GI50 [17, 20] was 3 µM and the CC50 [17, 21] was 84.5 µM. The “MG_MID, TGI” value ([17]; Ovarian Cancer panel mean) was 68.6 µM, the “SI (selectivity index), GI50” value [17, 28] was 1.36 and the “SI (selectivity index), LC50” value [17, 28] was 0.87. For the same compound, the “SI (selectivity index), TGI” value [17, 28] was 0.59, the “MG_MID, TGI” value ([18]; Breast Cancer panel mean) was 37.0 µM and the GI50 [18, 20] was 24.6 µM. For the same compound, the CC50 [18, 21] was 84.6 µM, the “SI (selectivity index), GI50” value [18, 29] was 0.17 and the “SI (selectivity index), LC50” value [18, 29] was 0.87. For the same compound, the “SI (selectivity index), TGI” value [18, 29] was 1.10, the “TI (Therapeutic Index)” value ([19]; GI50 (normal blood lymphocyte)/GI50 (Leukemia Panel)) was 16.60 and the GI50 [19, 20] was 2.95 µM. For the same compound, the CC50 [19, 21] was over 100 µM, the “MG_MID, TGI” value ([19]; Leukemia panel mean) was over 100 µM and the “SI (selectivity index), GI50” value [19, 30] was 1.39. For the same compound, the “SI (selectivity index), LC50” value [19, 30] was under 0.74 and the “SI (selectivity index), TGI” value [19, 30] was under 0.41.
